ChEMBL document CHEMBL1201862, “PubChem BioAssay data set” (2004)
Calls of active or inactive are those of the source.

Columns and labels:
[1] = biological target: Galanin receptor type 2 (Homo sapiens, UniProt O43603); assay: Dose Response cell-based high-throughput screening assay to identify antagonists of galanin receptor 2 (GALR2). [Related pubchem assays: 828, 866 ]; type: functional
[2] = tested on: Jurkat; assay: antigen receptor-induced NF-kB inhibitors, dose response, Jurkat, luciferase reporter, luminescence, B- and T-cell (AID 489004); type: functional, cell-based; details: Homo sapiens;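 also: NF-kB luciferase reporter Jurkat cells stimulated with PMA plus ionomycin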
[3] = cytotoxicity in HEK-293T NF-kB-Luc cells, dose response, cytotoxicity control for B/T-cell NF-kB inhibitor project, cell-based, uHTS hits (AID 489019); type: functional;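 also: IC50 reflects cytotoxicity as loss of cell viability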
[4] = tested on: INS1; assay: beta cell apoptosis inhibitors, cytokine rescue, dose response, luminescence, retest (AID 449756); type: functional, cell-based; details: Rattus norvegicus;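 also: cell death triggered by IL-1 beta plus TNF-alpha plus IFN-gamma mixture; protective hits raise ATP signal compared with cytokine alone wells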
[5] = biological target: Galanin receptor type 3 (Homo sapiens, UniProt O60755); assay: Fluorescence-based cell-based primary high throughput dose response assay to identify antagonists of the Galanin Receptor 3 (GalR3).; type: functional
[6] = cells; type: functional, cell-based; details: HEK-CNG
[7] = tested on: INS1; assay: protection of INS-1E cells from cytokine death, dose response, ATP luminescence, dry powder (AID 488844); type: functional, cell-based; details: Rattus norvegicus
[8] = tested on: INS1; assay: protection from cytokine-induced mitochondrial depolarization, dose response, cell-based, INS-1E, JC-1 fluorescence ratio, dry powder (AID 488931); type: functional; details: Rattus norvegicus
[9] = tested on: Escherichia coli; assay: microbe, parasite or virus in culture
[10] = tested on: HeLa; assay: Cytotoxicity counterscreen assay for transcriptional activators of heat shock protein 70 (Hsp70). [Related pubchem assays: 1203, 1252 ]; type: functional; details: Homo sapiens
[11] = biological target: T1, Microphthalmia-associated transcription factor (Homo sapiens, UniProt O75030); assay: TRPM1 promoter luciferase signal decrease, dose response, MITF inhibitor project, cell-based, SK-MEL-5, cherry-picked, set 3 (AID 493073); type: functional
T1 sequence (O75030 whole entry): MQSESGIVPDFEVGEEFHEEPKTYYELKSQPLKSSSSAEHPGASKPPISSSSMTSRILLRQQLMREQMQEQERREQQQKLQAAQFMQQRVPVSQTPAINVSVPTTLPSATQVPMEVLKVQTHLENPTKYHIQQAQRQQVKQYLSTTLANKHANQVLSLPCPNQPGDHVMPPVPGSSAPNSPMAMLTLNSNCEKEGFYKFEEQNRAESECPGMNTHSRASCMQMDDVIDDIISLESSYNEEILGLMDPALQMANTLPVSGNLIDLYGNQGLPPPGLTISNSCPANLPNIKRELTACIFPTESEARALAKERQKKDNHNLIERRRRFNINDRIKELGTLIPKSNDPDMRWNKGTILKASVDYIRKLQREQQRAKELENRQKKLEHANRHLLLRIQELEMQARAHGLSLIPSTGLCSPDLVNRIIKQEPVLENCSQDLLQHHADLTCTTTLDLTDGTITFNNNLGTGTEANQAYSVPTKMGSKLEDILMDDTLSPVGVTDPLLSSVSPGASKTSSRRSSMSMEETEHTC

[12] = tested on: A-375; assay: MITF: Counter assay: A375 proliferation Measured in Cell-Based System Using Plate Reader - 2084-03_Inhibitor_Dose_DryPowder_Activity. [Related pubchem assays (depositor defined):AID488944]; type: functional; details: Homo sapiens
[13] = tested on: A-375; assay: A375 melanoma cell viability reduction, dose response, counter-screen for MITF modulator project, cherry-pick samples, set 2 (AID 540335); type: functional, cell-based; details: Homo sapiens
[14] = Shn3 3'UTR reporter inhibitors, dose response, cell-based, Clone20 osteoblasts, firefly luciferase, cherry-picked (AID 624132); type: functional;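 also: firefly luciferase luminescence from reporter carrying the Shn3 3'UTR in osteoblasts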
[15] = HepG2 cell cytotoxicity, dose response, cytotoxicity control for Shn3 inhibitor project, CellTiter-Glo, cherry-picked (AID 624134); type: functional, cell-based
[16] = control 3'UTR Renilla luciferase suppression, dose response, counter-screen for Shn3 inhibitor project, cell-based, Clone20-Shn3RL, cherry-picked (AID 624133); type: functional
[17] = biological target: Paired box protein Pax-8 (Homo sapiens, UniProt Q06710); assay: inhibitors of PAX8-driven TPO luciferase reporter, dose response, RMG-I cells, cherry-pick (AID 687027); type: functional, cell-based;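 also: luciferase reporter driven by Pax8 target thyroperoxidase promoter measured by SteadyGlo luminescence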
[18] = inhibitors of CMV-promoter luciferase reporter, dose response, counter-screen for Pax8 inhibitor project, cell-based, HEK293, luminescence, dry powder (AID 743020); type: functional
[19] = cytotoxicity in HEK-293T cells, dose response, cytotoxicity control for TCR NF-kB inhibitor project, luminescence, T-cell screen hits (AID 489026); type: functional, cell-based;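 also: cells exposed to compound about 14 hours before the viability readout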
[20] = biological target: Phospholipase A2 (Homo sapiens, UniProt P04054); assay: PLA2 enzyme inhibitors, dose response, counter-screen for ATG4B inhibitor project, biochemical, set 2 (AID 588586); type: functional
[21] = biological target: T2, Cysteine protease ATG4B (Homo sapiens, UniProt Q9Y4P1); assay: ATG4B protease inhibitors, dose response, biochemical, fluorescence, set 2 (AID 588584); type: functional
T2 sequence (Q9Y4P1 whole entry): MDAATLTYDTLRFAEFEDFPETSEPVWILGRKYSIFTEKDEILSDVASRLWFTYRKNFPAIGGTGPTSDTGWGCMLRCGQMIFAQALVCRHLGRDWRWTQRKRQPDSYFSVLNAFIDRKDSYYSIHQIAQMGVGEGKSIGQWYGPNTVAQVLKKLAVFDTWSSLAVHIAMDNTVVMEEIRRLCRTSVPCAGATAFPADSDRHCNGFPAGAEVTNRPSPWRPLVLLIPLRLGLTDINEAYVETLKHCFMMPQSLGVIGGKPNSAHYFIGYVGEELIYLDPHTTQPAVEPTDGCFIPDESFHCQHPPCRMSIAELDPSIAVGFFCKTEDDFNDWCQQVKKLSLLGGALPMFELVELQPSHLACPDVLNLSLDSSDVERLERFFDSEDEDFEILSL

[22] = biological target: T3, Short transient receptor potential channel 4 (Mus musculus, UniProt Q9QUQ5); assay: SAR Analysis for the identification of selective inhibits of the transient receptor potential cation channel C4 (TRPC4): Automated Electrophysiology. [Related pubchem assays (depositor defined):AID2256]; type: functional
T3 sequence (Q9QUQ5 whole entry): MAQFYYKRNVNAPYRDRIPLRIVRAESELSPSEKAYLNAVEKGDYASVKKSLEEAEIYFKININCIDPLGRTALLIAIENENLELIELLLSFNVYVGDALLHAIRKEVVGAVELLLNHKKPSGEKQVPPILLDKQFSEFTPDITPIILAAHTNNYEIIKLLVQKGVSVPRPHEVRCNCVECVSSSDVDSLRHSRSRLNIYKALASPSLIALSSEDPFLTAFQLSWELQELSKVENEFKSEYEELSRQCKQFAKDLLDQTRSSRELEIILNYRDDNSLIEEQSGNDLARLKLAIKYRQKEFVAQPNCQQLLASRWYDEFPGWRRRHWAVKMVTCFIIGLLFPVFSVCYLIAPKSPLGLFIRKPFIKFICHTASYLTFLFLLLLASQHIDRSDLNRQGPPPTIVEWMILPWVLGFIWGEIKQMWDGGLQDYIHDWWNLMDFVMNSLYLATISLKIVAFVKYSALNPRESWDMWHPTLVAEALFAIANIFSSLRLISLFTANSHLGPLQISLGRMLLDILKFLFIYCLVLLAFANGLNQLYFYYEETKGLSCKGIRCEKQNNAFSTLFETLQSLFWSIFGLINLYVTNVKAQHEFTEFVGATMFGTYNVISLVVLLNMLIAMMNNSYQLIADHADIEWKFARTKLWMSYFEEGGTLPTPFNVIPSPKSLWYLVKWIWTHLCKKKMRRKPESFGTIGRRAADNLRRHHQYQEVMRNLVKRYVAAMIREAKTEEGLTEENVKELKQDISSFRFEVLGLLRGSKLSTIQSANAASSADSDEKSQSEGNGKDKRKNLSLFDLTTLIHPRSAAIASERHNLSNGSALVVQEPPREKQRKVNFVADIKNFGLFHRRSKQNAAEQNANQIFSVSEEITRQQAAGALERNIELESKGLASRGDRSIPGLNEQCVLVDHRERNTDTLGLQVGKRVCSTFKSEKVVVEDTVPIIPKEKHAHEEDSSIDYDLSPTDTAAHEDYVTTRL

[23] = biological target: T3, Short transient receptor potential channel 4; assay: TRPC4 inhibition under acetylcholine activation, SAR follow-up, cell-based, acetylcholine stimulus, HEK293 TRPC4, Fluo-4 (AID 492996); type: functional
[24] = biological target: T3, Short transient receptor potential channel 4; assay: SAR Analysis for the identification of selective inhibitors of the transient receptor potential cation channel C4 (TRPC4): TRPC4 Serotonin Receptor CRC MPD assay. [Related pubchem assays (depositor defined):AID2247, AID2256]; type: functional
[25] = biological target: T3, Short transient receptor potential channel 4; assay: TRPC4 inhibitor concentration-response, dose response, cell-based, HEK293 TRPC4/mu-opioid, DAMGO stimulus, Fluo-4 (AID 492994); type: functional
[26] = biological target: T4, Acyl-homoserine lactone acylase PvdQ (Pseudomonas aeruginosa (strain LESB58), UniProt Q9I194); assay: P. aeruginosa PvdQ acylase inhibitors, dose response, biochemical, fluorescence, plate reader and imaging, cherry-picks (AID 493231)
T4 sequence (Q9I194 whole entry): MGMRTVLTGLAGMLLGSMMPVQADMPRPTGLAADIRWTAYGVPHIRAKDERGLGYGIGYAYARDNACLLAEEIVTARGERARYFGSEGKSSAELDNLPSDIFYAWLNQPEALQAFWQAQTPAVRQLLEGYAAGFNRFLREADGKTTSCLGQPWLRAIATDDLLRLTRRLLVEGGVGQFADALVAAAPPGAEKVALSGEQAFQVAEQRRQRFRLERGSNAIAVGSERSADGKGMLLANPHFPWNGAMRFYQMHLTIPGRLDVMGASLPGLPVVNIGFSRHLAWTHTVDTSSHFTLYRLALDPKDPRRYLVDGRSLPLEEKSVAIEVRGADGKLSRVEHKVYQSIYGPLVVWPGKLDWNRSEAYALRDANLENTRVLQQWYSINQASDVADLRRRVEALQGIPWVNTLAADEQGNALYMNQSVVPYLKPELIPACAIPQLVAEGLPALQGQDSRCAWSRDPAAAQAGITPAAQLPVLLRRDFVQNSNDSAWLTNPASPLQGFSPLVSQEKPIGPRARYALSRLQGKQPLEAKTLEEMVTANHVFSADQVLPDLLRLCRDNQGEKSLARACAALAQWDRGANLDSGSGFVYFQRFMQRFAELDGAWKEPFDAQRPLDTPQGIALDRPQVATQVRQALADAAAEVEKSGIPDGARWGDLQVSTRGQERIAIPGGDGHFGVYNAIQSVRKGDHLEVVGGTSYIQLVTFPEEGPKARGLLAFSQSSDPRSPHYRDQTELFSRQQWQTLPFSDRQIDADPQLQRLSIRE

[27] = tested on: HeLa; assay: HeLa cell cytotoxicity, dose response, cytotoxicity control, 48 h, plate reader, cherry-picks (AID 504942); type: functional, cell-based; details: Homo sapiens
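For CC50 in this document: cells exposed to compound for 16 hours before readout.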
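For EC50 in this document: target is galanin receptor GalR3 read with a cAMP biosensor in HEK293 cells.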

Galanin receptor type 2, sequence (O43603 whole entry): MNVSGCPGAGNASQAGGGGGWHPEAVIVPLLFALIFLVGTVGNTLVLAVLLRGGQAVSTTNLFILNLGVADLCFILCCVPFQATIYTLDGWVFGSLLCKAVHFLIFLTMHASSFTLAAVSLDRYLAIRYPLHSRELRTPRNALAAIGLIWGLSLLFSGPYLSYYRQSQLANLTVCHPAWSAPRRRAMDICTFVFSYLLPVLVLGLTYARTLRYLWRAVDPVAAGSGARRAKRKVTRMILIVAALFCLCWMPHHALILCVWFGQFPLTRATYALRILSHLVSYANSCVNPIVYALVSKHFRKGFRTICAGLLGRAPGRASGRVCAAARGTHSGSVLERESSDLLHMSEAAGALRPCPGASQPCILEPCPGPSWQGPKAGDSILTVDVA
Galanin receptor type 3, sequence (O60755 whole entry): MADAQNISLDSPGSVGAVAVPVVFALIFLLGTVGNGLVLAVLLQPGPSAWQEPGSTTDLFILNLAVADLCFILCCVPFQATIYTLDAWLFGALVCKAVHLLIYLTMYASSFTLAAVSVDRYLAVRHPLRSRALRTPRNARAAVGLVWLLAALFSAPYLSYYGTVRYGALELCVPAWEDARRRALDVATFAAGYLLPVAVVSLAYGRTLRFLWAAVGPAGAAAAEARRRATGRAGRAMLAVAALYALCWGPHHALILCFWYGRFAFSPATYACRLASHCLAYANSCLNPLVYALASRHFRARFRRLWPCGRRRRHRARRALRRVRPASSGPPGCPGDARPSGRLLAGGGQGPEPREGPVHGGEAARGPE
Phospholipase A2, sequence (P04054 whole entry): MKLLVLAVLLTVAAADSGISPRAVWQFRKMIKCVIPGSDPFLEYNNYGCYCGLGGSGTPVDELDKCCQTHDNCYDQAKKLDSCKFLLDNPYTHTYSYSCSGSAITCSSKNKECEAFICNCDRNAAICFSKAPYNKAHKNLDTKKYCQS
Paired box protein Pax-8, sequence (Q06710 whole entry): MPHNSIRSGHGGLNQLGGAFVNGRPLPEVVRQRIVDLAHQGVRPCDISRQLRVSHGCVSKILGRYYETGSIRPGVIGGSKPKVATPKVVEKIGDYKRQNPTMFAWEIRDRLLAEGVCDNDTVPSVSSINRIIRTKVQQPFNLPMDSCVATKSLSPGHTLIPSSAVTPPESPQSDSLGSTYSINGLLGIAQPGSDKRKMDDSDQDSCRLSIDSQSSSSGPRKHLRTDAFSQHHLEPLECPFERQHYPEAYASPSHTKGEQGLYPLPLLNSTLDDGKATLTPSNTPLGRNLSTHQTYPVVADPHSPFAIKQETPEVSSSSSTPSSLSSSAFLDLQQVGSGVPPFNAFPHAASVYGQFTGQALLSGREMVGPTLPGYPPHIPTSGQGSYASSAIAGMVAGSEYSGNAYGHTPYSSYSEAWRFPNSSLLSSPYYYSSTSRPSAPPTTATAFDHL

Cn1nc(C(C)(C)C)cc1C(=O)NCc1ccc(N2CCCC2=O)cc1
IC50 [1]: > 42 µM (not active)
IC50 [2]: > 80 µM (inactive)
IC50 [3]: > 80 µM (inactive)
AC50 [4]: 2.85 µM (active)
IC50 [5]: 1.13 µM (active)
EC50 [6]: > 29.9 µM (inactive)

COc1ccc(S(=O)(=O)N(C)C[C@@H]2Oc3c(NC(=O)Nc4cccc5ccccc45)cccc3C(=O)N(C(C)C)C[C@H]2C)cc1
AC50 [7]: 63.7 µM (active)
AC50 [8]: 24 µM (active)

CC(=O)N1Cc2cc([N+](=O)[O-])ccc2Oc2ccccc21
AC50 [9]: 28.5 µM (active)

CCC(=O)N1CCN(c2ccc(NC(=O)c3ccc([N+](=O)[O-])o3)cc2Cl)CC1
CC50 [10]: 4.57 µM (active)
AC50 [11]: 6.09 µM (active)
AC50 [12]: > 35 µM (active)
AC50 [13]: > 35 µM (active)
AC50 [14]: 0.85 µM (active)
AC50 [15]: 20.5 µM (active)
AC50 [16]: 5.2 µM (active)
AC50 [17]: 4.12 µM (active)
AC50 [18]: 2.21 µM (active)

Cc1noc(C)c1CSc1nc2ccccc2c(=O)n1-c1ccccc1
IC50 [19]: > 80 µM (inactive)
IC50 [20]: 10.7 µM (active)
IC50 [21]: 19.2 µM (active)

Cc1cc(N2CCC(C)CC2)nc2ccccc12
IC50 [22]: 3.14 µM (active)
IC50 [23]: 20.7 µM (active)
IC50 [24]: 5.47 µM (active)
IC50 [25]: 7.24 µM (active)

Cn1cccc1C(=O)OCc1cc(-c2ccco2)on1
AC50 [26]: 11.1 µM (active)
AC50 [27]: > 380 µM (inactive)
